From US20240158446A1, “CYCLIC COMPOUND HAVING SELECTIVE INHIBITORY ACTION ON KRAS OVER HRAS AND NRAS” (CHUGAI SEIYAKU KABUSHIKI KAISHA, priority 2021, published 2024)

Assays:
[1] = molecular target: GDP-bound KRAS wild-type protein (Homo sapiens, UniProt P01116); test: Binding to KRAS by surface plasmon resonance (SPR), Single Cycle Kinetics; settings: SPR, Single Cycle Kinetics, GDP-bound KRAS wild-type protein; read-out: KRAS KD
[2] = molecular target: GDP-bound NRAS wild-type protein (Homo sapiens, UniProt P01111); test: Binding to NRAS by surface plasmon resonance (SPR), Single Cycle Kinetics; settings: ratio of KD for GDP-bound NRAS wild-type protein to KD for KRAS, SPR
Sequence of GDP-bound NRAS wild-type protein (P01111 whole entry): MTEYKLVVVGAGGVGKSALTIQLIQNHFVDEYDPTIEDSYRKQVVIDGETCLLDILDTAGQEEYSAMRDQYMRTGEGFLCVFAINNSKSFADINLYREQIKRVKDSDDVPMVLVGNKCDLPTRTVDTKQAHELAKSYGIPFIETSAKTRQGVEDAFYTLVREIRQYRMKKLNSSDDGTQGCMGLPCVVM

[3] = molecular target: GDP-bound HRAS wild-type protein (Homo sapiens, UniProt P01112); test: Binding to HRAS by surface plasmon resonance (SPR), Single Cycle Kinetics; settings: ratio of KD for GDP-bound HRAS wild-type protein to KD for KRAS, SPR
Sequence of GDP-bound HRAS wild-type protein (P01112 whole entry): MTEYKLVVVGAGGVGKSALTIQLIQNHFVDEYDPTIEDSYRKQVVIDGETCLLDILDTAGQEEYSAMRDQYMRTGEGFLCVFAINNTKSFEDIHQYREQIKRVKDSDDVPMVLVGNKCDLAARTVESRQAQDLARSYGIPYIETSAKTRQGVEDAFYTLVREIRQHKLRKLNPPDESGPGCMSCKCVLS

[4] = test system: human lung cancer strain NCI-H441; test: cells; settings: NCI-H441, 96 h, read-out: NCI-H441 IC50 (nM), NCI-H441 cell proliferation, 4 days, CellTiter-Glo;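 note: cell proliferation inhibition after four days measured by CellTiter-Glo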

Sequence of GDP-bound KRAS wild-type protein (P01116 whole entry): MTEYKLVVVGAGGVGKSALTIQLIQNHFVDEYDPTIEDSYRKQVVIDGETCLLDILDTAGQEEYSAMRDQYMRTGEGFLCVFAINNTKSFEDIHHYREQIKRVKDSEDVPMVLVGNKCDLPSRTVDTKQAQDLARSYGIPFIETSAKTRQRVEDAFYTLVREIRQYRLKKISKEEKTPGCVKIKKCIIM

SMILES | Kd [1] [nM] | IC50 [4] [nM] | NRAS/KRAS (KD ratio) [2] | HRAS/KRAS (KD ratio) [3]
CCC[C@H]1C(=O)N[C@@H]([C@@H](C)CC)C(=O)N(C)CC(=O)N(C)[C@H]2C/C=C\CCN(C2=O)[C@@H](Cc2ccc(C)cc2)C(=O)N(C)CC(=O)N[C@@H](CCc2ccc(C(F)(F)F)c(OC)c2)C(=O)N2C[C@H](C)C[C@H]2C(=O)NC2(CC(C)(C)C2)C(=O)N(C)[C@@H](C2CCCC2)C(=O)N(C)[C@H](C(=O)N(C)CC)CC(=O)N1C [PP1891] | 0.29 | 2.6 | A (a compound having 10 or more and less than 20 is denoted as A) | A (a compound having 10 or more and less than 20 is denoted as A)
CCC[C@H]1C(=O)N[C@@H]([C@@H](C)CC)C(=O)N(C)CC(=O)N(C)[C@H]2C/C=C\CCN(C2=O)[C@@H](Cc2ccc(C)cc2)C(=O)N(C)CC(=O)N[C@@H](CCc2ccc(C(F)(F)F)c(OC)c2)C(=O)N2C[C@H](OCC)C[C@H]2C(=O)NC2(CC(C)(C)C2)C(=O)N(C)[C@@H](C2CCCC2)C(=O)N(C)[C@H](C(=O)N(C)C)CC(=O)N1C [PP1892] | 0.074 | 4.8 | A (a compound having 10 or more and less than 20 is denoted as A) | B (a compound having 3 or more and less than 10 is denoted as B)
CCC[C@H]1C(=O)N[C@@H]([C@@H](C)CC)C(=O)N(C)CC(=O)N(C)[C@H]2C/C=C\CCN(C2=O)[C@@H](Cc2ccc(C)cc2)C(=O)N(C)CC(=O)N[C@@H](CCc2ccc(C(F)(F)F)c(Cl)c2)C(=O)N2C[C@@H](C)C[C@H]2C(=O)NC2(CC(C)(C)C2)C(=O)N(C)[C@@H](C2CCCC2)C(=O)N(C)[C@H](C(=O)N(C)CC)CC(=O)N1C [PP1893] | 0.17 | 18.5 | A (a compound having 10 or more and less than 20 is denoted as A) | B (a compound having 3 or more and less than 10 is denoted as B)
CCC[C@H]1C(=O)N[C@@H]([C@@H](C)CC)C(=O)N(C)CC(=O)N(C)[C@H]2C/C=C\CCN(C2=O)[C@@H](Cc2ccc(C)cc2)C(=O)N(C)CC(=O)N[C@@H](CCc2ccc(C(F)(F)F)c(Cl)c2)C(=O)N2C[C@H](OCC)C[C@H]2C(=O)NC2(CC(C)(C)C2)C(=O)N(C)[C@@H](C2CCCC2)C(=O)N(C)[C@H](C(=O)N(C)C)CC(=O)N1C [PP1896] | 0.06 | 5.3 | A (a compound having 10 or more and less than 20 is denoted as A) | B (a compound having 3 or more and less than 10 is denoted as B)
CC[C@H](C)[C@@H]1NC(=O)[C@H](CC2CC2)N(C)C(=O)C[C@@H](C(=O)N(C)C)N(C)C(=O)[C@H](C2CCCC2)N(C)C(=O)C2(CC(C)(C)C2)NC(=O)[C@@H]2C[C@H](C)CN2C(=O)[C@H](CCc2ccc(C(F)(F)F)c(OC)c2)NC(=O)CN(C)C(=O)[C@H](Cc2ccc(C)cc2)N2CC/C=C\C[C@@H](C2=O)N(C)C(=O)CN(C)C1=O [PP1898] | 0.13 | 6.3 | B (a compound having 3 or more and less than 10 is denoted as B) | B (a compound having 3 or more and less than 10 is denoted as B)
CC[C@H](C)[C@@H]1NC(=O)[C@H](CC(C)C)N(C)C(=O)C[C@@H](C(=O)N(C)CC)N(C)C(=O)[C@H](C2CCCC2)N(C)C(=O)C2(CCC2)NC(=O)[C@@H]2C[C@H](C)CN2C(=O)[C@H](CCc2ccc(C(F)(F)F)c(OC)c2)NC(=O)CN(C)C(=O)[C@H](Cc2ccc(C)cc2)N2CC/C=C\C[C@@H](C2=O)N(C)C(=O)CN(C)C1=O [PP1904] | 0.12 | 18.3 | A (a compound having 10 or more and less than 20 is denoted as A) | B (a compound having 3 or more and less than 10 is denoted as B)
CC[C@H](C)[C@@H]1NC(=O)[C@H](CC(C)C)N(C)C(=O)C[C@@H](C(=O)N(C)CC)N(C)C(=O)[C@H](C2CCCC2)N(C)C(=O)C2(CCC2)NC(=O)[C@@H]2C[C@@H](C)CN2C(=O)[C@H](CCc2ccc(C(F)(F)F)c(OC)c2)NC(=O)CN(C)C(=O)[C@H](Cc2ccc(C)cc2)N2CC/C=C\C[C@@H](C2=O)N(C)C(=O)CN(C)C1=O [PP1907] | 0.17 | 23.6 | AA (a compound having 20 or more is denoted as AA) | A (a compound having 10 or more and less than 20 is denoted as A)
CC[C@H](C)[C@@H]1NC(=O)[C@H](CC(C)C)N(C)C(=O)C[C@@H](C(=O)N(C)C)N(C)C(=O)[C@H](C2CCCC2)N(C)C(=O)C2(CC(C)(C)C2)NC(=O)[C@@H]2C[C@@H](C)CN2C(=O)[C@H](CCc2ccc(C(F)(F)F)c(OC)c2)NC(=O)CN(C)C(=O)[C@H](Cc2ccc(C)cc2)N2CC/C=C\C[C@@H](C2=O)N(C)C(=O)CN(C)C1=O [PP1908] | 0.11 | 10.1 | A (a compound having 10 or more and less than 20 is denoted as A) | B (a compound having 3 or more and less than 10 is denoted as B)

The remaining compounds from weak to strong by Kd [1], led by results:

Kd [1] [nM] | IC50 [4] [nM] | SMILES | NRAS/KRAS (KD ratio) [2] | HRAS/KRAS (KD ratio) [3]
0.21 | 12.5 | CCC[C@H]1C(=O)N[C@@H]([C@@H](C)CC)C(=O)N(C)CC(=O)N(C)[C@H]2C/C=C\CCN(C2=O)[C@@H](Cc2ccc(C)cc2)C(=O)N(C)CC(=O)N[C@@H](CCc2ccc(C(F)(F)F)c(OC)c2)C(=O)N2C[C@@H](C)C[C@H]2C(=O)NC2(CC(C)(C)C2)C(=O)N(C)[C@@H](C2CCCC2)C(=O)N(C)[C@H](C(=O)N(C)CC)CC(=O)N1C [PP1889] | A (a compound having 10 or more and less than 20 is denoted as A) | B (a compound having 3 or more and less than 10 is denoted as B)
0.15 | 10.8 | CC[C@H](C)[C@@H]1NC(=O)[C@H](CC(C)C)N(C)C(=O)C[C@@H](C(=O)N(C)CC)N(C)C(=O)[C@H](C2CCCC2)N(C)C(=O)C2(CC(C)(C)C2)NC(=O)[C@@H]2C[C@H](C)CN2C(=O)[C@H](CCc2ccc(C(F)(F)F)c(OC)c2)NC(=O)CN(C)C(=O)[C@H](Cc2ccc(C)cc2)N2CC/C=C\C[C@@H](C2=O)N(C)C(=O)CN(C)C1=O [PP1906] | A (a compound having 10 or more and less than 20 is denoted as A) | A (a compound having 10 or more and less than 20 is denoted as A)
0.13 | 15.6 | CCC[C@H]1C(=O)N[C@@H]([C@@H](C)CC)C(=O)N(C)CC(=O)N(C)[C@H]2C/C=C\CCN(C2=O)[C@@H](Cc2ccc(C)cc2)C(=O)N(C)CC(=O)N[C@@H](CCc2ccc(C(F)(F)F)c(Cl)c2)C(=O)N2C[C@H](OCC)C[C@H]2C(=O)NC2(CCC2)C(=O)N(C)[C@@H](C2CCCC2)C(=O)N(C)[C@H](C(=O)N(C)CC)CC(=O)N1C [PP1895] | A (a compound having 10 or more and less than 20 is denoted as A) | B (a compound having 3 or more and less than 10 is denoted as B)
0.12 | 1.9 | CCO[C@@H]1C[C@H]2C(=O)NC3(CC(C)(C)C3)C(=O)N(C)[C@@H](C3CCCC3)C(=O)N(C)[C@H](C(=O)N(C)CC)CC(=O)N(C)[C@@H](CC)C(=O)N[C@@H]([C@@H](C)CC)C(=O)N(C)CC(=O)N(C)[C@H]3C/C=C\CCN(C3=O)[C@@H](Cc3ccc(C)cc3)C(=O)N(C)CC(=O)N[C@@H](CCc3cc(F)c(C(F)(F)F)c(F)c3)C(=O)N2C1 [PP1886] | A (a compound having 10 or more and less than 20 is denoted as A) | B (a compound having 3 or more and less than 10 is denoted as B)
